Patent US10485235B2, “Aryloxypyrimidinyl ethers as herbicides” (FMC Corporation, priority 2015, dated 2019)

test system: barnyardgrass (Echinochloa crus-galli); experiment: Test A preemergence, barnyardgrass; assay type: in vivo; conditions: Preemergence, 31 g ai/ha; 0 to 100 scale (0 no effect, 100 complete control)
Description: (§1) Seeds of plant species selected from barnyardgrass (Echinochloa crus-galli), kochia (Kochia scoparia), ragweed (common ragweed, Ambrosia elatior), ryegrass, Italian (Italian ryegrass, Lolium multiflorum), foxtail, giant (giant foxtail, Setaria faberii), and pigweed (Amaranthus retroflexus), were planted into a blend of loam soil and sand and treated preemergence with a directed soil spray using test chemicals formulated in a non-phytotoxic solvent mixture which included a surfactant.
(§2) At the same time, plants selected from these weed species and also wheat (Triticum aestivum), corn (Zea mays), blackgrass (Alopecurus myosuroides), and galium (catchweed bedstraw, Galium aparine), were planted in pots containing the same blend of loam soil and sand and treated with postemergence applications of test chemicals formulated in the same manner. Plants ranged in height from 2 to 10 cm and were in the one- to two-leaf stage for the postemergence treatment. Treated plants and untreated controls were maintained in a greenhouse for approximately 10 days, after which time all treated plants were compared to untreated controls and visually evaluated for injury. Plant response ratings, summarized in Table A, are based on a 0 to 100 scale where 0 is no effect and 100 is complete control. A dash (—) response means no test result.

| Compound | Plant response rating, Barnyardgrass |
| --- | --- |
| Cc1cccc(Oc2ncc(Cl)cn2)c1OC/C=C/Cl [Compound 59] | 30 |

same assay, conditions: Preemergence, 125 g ai/ha; 0 to 100 scale (0 no effect, 100 complete control)

| Compound | Plant response rating, Barnyardgrass |
| --- | --- |
| Cc1cccc(Oc2ncc(Cl)cn2)c1OC/C=C/Cl [Compound 59] | 100 |

test system: kochia (Kochia scoparia); experiment: Test A preemergence, kochia; assay type: in vivo; conditions: Preemergence, 31 g ai/ha; 0 to 100 scale (0 no effect, 100 complete control)
Description: as §1, §2

| Compound | Plant response rating, Kochia |
| --- | --- |
| Cc1cccc(Oc2ncc(Cl)cn2)c1OC/C=C/Cl [Compound 59] | 60 |

same assay, conditions: Preemergence, 125 g ai/ha; 0 to 100 scale (0 no effect, 100 complete control)

| Compound | Plant response rating, Kochia |
| --- | --- |
| Cc1cccc(Oc2ncc(Cl)cn2)c1OC/C=C/Cl [Compound 59] | 100 |

test system: ragweed (common ragweed, Ambrosia elatior); experiment: Test A preemergence, ragweed; assay type: in vivo; conditions: Preemergence, 31 g ai/ha; 0 to 100 scale (0 no effect, 100 complete control)
Description: as §1, §2

| Compound | Plant response rating, Ragweed |
| --- | --- |
| Cc1cccc(Oc2ncc(Cl)cn2)c1OC/C=C/Cl [Compound 59] | 0 |

same assay, conditions: Preemergence, 125 g ai/ha; 0 to 100 scale (0 no effect, 100 complete control)

| Compound | Plant response rating, Ragweed |
| --- | --- |
| Cc1cccc(Oc2ncc(Cl)cn2)c1OC/C=C/Cl [Compound 59] | 0 |

test system: ryegrass, Italian (Italian ryegrass, Lolium multiflorum); experiment: Test A preemergence, Italian ryegrass; assay type: in vivo; conditions: Preemergence, 31 g ai/ha; 0 to 100 scale (0 no effect, 100 complete control)
Description: as §1, §2

| Compound | Plant response rating, Ryegrass, Italian |
| --- | --- |
| Cc1cccc(Oc2ncc(Cl)cn2)c1OC/C=C/Cl [Compound 59] | 0 |

same assay, conditions: Preemergence, 125 g ai/ha; 0 to 100 scale (0 no effect, 100 complete control)

| Compound | Plant response rating, Ryegrass, Italian |
| --- | --- |
| Cc1cccc(Oc2ncc(Cl)cn2)c1OC/C=C/Cl [Compound 59] | 0 |

test system: foxtail, giant (giant foxtail, Setaria faberii); experiment: Test A preemergence, giant foxtail; assay type: in vivo; conditions: Preemergence, 31 g ai/ha; 0 to 100 scale (0 no effect, 100 complete control)
Description: as §1, §2

| Compound | Plant response rating, Foxtail, Giant |
| --- | --- |
| Cc1cccc(Oc2ncc(Cl)cn2)c1OC/C=C/Cl [Compound 59] | 10 |

same assay, conditions: Preemergence, 125 g ai/ha; 0 to 100 scale (0 no effect, 100 complete control)

| Compound | Plant response rating, Foxtail, Giant |
| --- | --- |
| Cc1cccc(Oc2ncc(Cl)cn2)c1OC/C=C/Cl [Compound 59] | 50 |

test system: pigweed (Amaranthus retroflexus); experiment: Test A preemergence, pigweed; assay type: in vivo; conditions: Preemergence, 31 g ai/ha; 0 to 100 scale (0 no effect, 100 complete control)
Description: as §1, §2

| Compound | Plant response rating, Pigweed |
| --- | --- |
| Cc1cccc(Oc2ncc(Cl)cn2)c1OC/C=C/Cl [Compound 59] | 20 |

same assay, conditions: Preemergence, 125 g ai/ha; 0 to 100 scale (0 no effect, 100 complete control)

| Compound | Plant response rating, Pigweed |
| --- | --- |
| Cc1cccc(Oc2ncc(Cl)cn2)c1OC/C=C/Cl [Compound 59] | 100 |

test system: barnyardgrass (Echinochloa crus-galli); experiment: Test A postemergence, barnyardgrass; assay type: in vivo; conditions: 31 g ai/ha, postemergence; 0 to 100 scale, 0 is no effect, 100 is complete control; approximately 10 days
Description: as §1, §2

| Compound | Plant response rating, Barnyardgrass |
| --- | --- |
| Cc1cccc(Oc2ncc(Cl)cn2)c1OC/C=C/Cl [Compound 59] | 40 |

same assay, conditions: 125 g ai/ha, postemergence; 0 to 100 scale, 0 is no effect, 100 is complete control; approximately 10 days

| Compound | Plant response rating, Barnyardgrass |
| --- | --- |
| Cc1cccc(Oc2ncc(Cl)cn2)c1OC/C=C/Cl [Compound 59] | 100 |

test system: ragweed (common ragweed, Ambrosia elatior); experiment: Test A postemergence, ragweed; assay type: in vivo; conditions: 31 g ai/ha, postemergence; 0 to 100 scale, 0 is no effect, 100 is complete control; approximately 10 days
Description: as §1, §2

| Compound | Plant response rating, Ragweed |
| --- | --- |
| Cc1cccc(Oc2ncc(Cl)cn2)c1OC/C=C/Cl [Compound 59] | 0 |

same assay, conditions: 125 g ai/ha, postemergence; 0 to 100 scale, 0 is no effect, 100 is complete control; approximately 10 days

| Compound | Plant response rating, Ragweed |
| --- | --- |
| Cc1cccc(Oc2ncc(Cl)cn2)c1OC/C=C/Cl [Compound 59] | 0 |

test system: ryegrass, Italian (Italian ryegrass, Lolium multiflorum); experiment: Test A postemergence, Italian ryegrass; assay type: in vivo; conditions: 31 g ai/ha, postemergence; 0 to 100 scale, 0 is no effect, 100 is complete control; approximately 10 days
Description: as §1, §2

| Compound | Plant response rating, Ryegrass, Italian |
| --- | --- |
| Cc1cccc(Oc2ncc(Cl)cn2)c1OC/C=C/Cl [Compound 59] | 0 |

same assay, conditions: 125 g ai/ha, postemergence; 0 to 100 scale, 0 is no effect, 100 is complete control; approximately 10 days

| Compound | Plant response rating, Ryegrass, Italian |
| --- | --- |
| Cc1cccc(Oc2ncc(Cl)cn2)c1OC/C=C/Cl [Compound 59] | 0 |

test system: foxtail, giant (giant foxtail, Setaria faberii); experiment: Test A postemergence, giant foxtail; assay type: in vivo; conditions: 31 g ai/ha, postemergence; 0 to 100 scale, 0 is no effect, 100 is complete control; approximately 10 days
Description: as §1, §2

| Compound | Plant response rating, Foxtail, Giant |
| --- | --- |
| Cc1cccc(Oc2ncc(Cl)cn2)c1OC/C=C/Cl [Compound 59] | 20 |

same assay, conditions: 125 g ai/ha, postemergence; 0 to 100 scale, 0 is no effect, 100 is complete control; approximately 10 days

| Compound | Plant response rating, Foxtail, Giant |
| --- | --- |
| Cc1cccc(Oc2ncc(Cl)cn2)c1OC/C=C/Cl [Compound 59] | 50 |

test system: pigweed (Amaranthus retroflexus); experiment: Test A postemergence, pigweed; assay type: in vivo; conditions: 31 g ai/ha, postemergence; 0 to 100 scale, 0 is no effect, 100 is complete control; approximately 10 days
Description: as §1, §2

| Compound | Plant response rating, Pigweed |
| --- | --- |
| Cc1cccc(Oc2ncc(Cl)cn2)c1OC/C=C/Cl [Compound 59] | 40 |

same assay, conditions: 125 g ai/ha, postemergence; 0 to 100 scale, 0 is no effect, 100 is complete control; approximately 10 days

| Compound | Plant response rating, Pigweed |
| --- | --- |
| Cc1cccc(Oc2ncc(Cl)cn2)c1OC/C=C/Cl [Compound 59] | 70 |

test system: wheat (Triticum aestivum); experiment: Test A postemergence, wheat; assay type: in vivo; conditions: 31 g ai/ha, postemergence; 0 to 100 scale, 0 is no effect, 100 is complete control; approximately 10 days
Description: as §1, §2

| Compound | Plant response rating, Wheat |
| --- | --- |
| Cc1cccc(Oc2ncc(Cl)cn2)c1OC/C=C/Cl [Compound 59] | 0 |

same assay, conditions: 125 g ai/ha, postemergence; 0 to 100 scale, 0 is no effect, 100 is complete control; approximately 10 days

| Compound | Plant response rating, Wheat |
| --- | --- |
| Cc1cccc(Oc2ncc(Cl)cn2)c1OC/C=C/Cl [Compound 59] | 0 |

test system: corn (Zea mays); experiment: Test A postemergence, corn; assay type: in vivo; conditions: 31 g ai/ha, postemergence; 0 to 100 scale, 0 is no effect, 100 is complete control; approximately 10 days
Description: as §1, §2

| Compound | Plant response rating, Corn |
| --- | --- |
| Cc1cccc(Oc2ncc(Cl)cn2)c1OC/C=C/Cl [Compound 59] | 0 |

same assay, conditions: 125 g ai/ha, postemergence; 0 to 100 scale, 0 is no effect, 100 is complete control; approximately 10 days

| Compound | Plant response rating, Corn |
| --- | --- |
| Cc1cccc(Oc2ncc(Cl)cn2)c1OC/C=C/Cl [Compound 59] | 10 |

test system: blackgrass (Alopecurus myosuroides); experiment: Test A postemergence, blackgrass; assay type: in vivo; conditions: 31 g ai/ha, postemergence; 0 to 100 scale, 0 is no effect, 100 is complete control; approximately 10 days
Description: as §1, §2

| Compound | Plant response rating, Blackgrass |
| --- | --- |
| Cc1cccc(Oc2ncc(Cl)cn2)c1OC/C=C/Cl [Compound 59] | 0 |

same assay, conditions: 125 g ai/ha, postemergence; 0 to 100 scale, 0 is no effect, 100 is complete control; approximately 10 days

| Compound | Plant response rating, Blackgrass |
| --- | --- |
| Cc1cccc(Oc2ncc(Cl)cn2)c1OC/C=C/Cl [Compound 59] | 50 |

test system: galium (catchweed bedstraw, Galium aparine); experiment: Test A postemergence, galium; assay type: in vivo; conditions: 31 g ai/ha, postemergence; 0 to 100 scale, 0 is no effect, 100 is complete control; approximately 10 days
Description: as §1, §2

| Compound | Plant response rating, Galium |
| --- | --- |
| Cc1cccc(Oc2ncc(Cl)cn2)c1OC/C=C/Cl [Compound 59] | 90 |

same assay, conditions: 125 g ai/ha, postemergence; 0 to 100 scale, 0 is no effect, 100 is complete control; approximately 10 days

| Compound | Plant response rating, Galium |
| --- | --- |
| Cc1cccc(Oc2ncc(Cl)cn2)c1OC/C=C/Cl [Compound 59] | 30 |

test system: rice (Oryza sativa); experiment: Test B flooded paddy test, rice; assay type: in vivo; conditions: 250 g ai/ha, Flood; visual rating after 13 to 15 days; scale 0 to 100, 0 is no effect, 100 is complete control
Experimental: (§3) Plant species in the flooded paddy test selected from rice (Oryza sativa), sedge, umbrella (small-flower umbrella sedge, Cyperus difformis), ducksalad (Heteranthera limosa), and barnyardgrass (Echinochloa crus-galli) were grown to the 2-leaf stage for testing. At time of treatment, test pots were flooded to 3 cm above the soil surface, treated by application of test compounds directly to the paddy water, and then maintained at that water depth for the duration of the test. Treated plants and controls were maintained in a greenhouse for 13 to 15 days, after which time all species were compared to controls and visually evaluated. Plant response ratings, summarized in Table B, are based on a scale of 0 to 100 where 0 is no effect and 100 is complete control. A dash (—) response means no test result.

| Compound | Plant response rating, Rice |
| --- | --- |
| Cc1cccc(Oc2ncc(Cl)cn2)c1OC/C=C/Cl [Compound 59] | 0 |

test system: sedge, umbrella (small-flower umbrella sedge, Cyperus difformis); experiment: Test B flooded paddy test, umbrella sedge; assay type: in vivo; conditions: 250 g ai/ha, Flood; visual rating after 13 to 15 days; scale 0 to 100, 0 is no effect, 100 is complete control
Experimental: as §3

| Compound | Plant response rating, Sedge, Umbrella |
| --- | --- |
| Cc1cccc(Oc2ncc(Cl)cn2)c1OC/C=C/Cl [Compound 59] | 90 |

test system: ducksalad (Heteranthera limosa); experiment: Test B flooded paddy test, ducksalad; assay type: in vivo; conditions: 250 g ai/ha, Flood; visual rating after 13 to 15 days; scale 0 to 100, 0 is no effect, 100 is complete control
Experimental: as §3

| Compound | Plant response rating, Ducksalad |
| --- | --- |
| Cc1cccc(Oc2ncc(Cl)cn2)c1OC/C=C/Cl [Compound 59] | 100 |

test system: barnyardgrass (Echinochloa crus-galli); experiment: Test B flooded paddy test, barnyardgrass; assay type: in vivo; conditions: 250 g ai/ha, Flood; visual rating after 13 to 15 days; scale 0 to 100, 0 is no effect, 100 is complete control
Experimental: as §3

| Compound | Plant response rating, Barnyardgrass |
| --- | --- |
| Cc1cccc(Oc2ncc(Cl)cn2)c1OC/C=C/Cl [Compound 59] | 20 |
